Results published in patent US12290544B1, “Essential oil of stems and leaves of Chuzhou chrysanthemum and application thereof” (Chuzhou University, priority 2023, dated 2025).
Where a name gives a salt, the structure may show the parent alone.

Assays:
Escherichia coli = experiment: Bacterial inhibition assay (filter paper, bacteriostatic ring); assay type: cell-based
Description: (§1) Cultured Escherichia coli and Staphylococcus aureus are diluted into […] colony forming units per milliliter (CFU/mL) bacterial solution respectively, and evenly spread on a potato dextrose agar (PDA) plate. After standing for 10 min, the filter paper with a diameter of 6 mm made by a punch is spread on the PDA plate, and 6 pieces are evenly placed in each plate. 10 μL of essential oil of stems and leaves of Chuzhou chrysanthemum with a concentration of 5 mg/mL is added with a pipette, and the culture dish is placed in a 37° C. incubator for culture. In the same way, the bacterial inhibition assay of the essential oil of the stems and leaves of Chuzhou chrysanthemum is carried out at the concentrations of 10, 20, 50, and 100 mg/mL. After 16 to 18 h of incubation, a diameter of a bacteriostatic ring (including the piece) is measured with a vernier caliper and recorded. When measuring the bacteriostatic ring, the bacteriostatic ring with uniform and completely sterile growth should be selected, and its diameter should be measured with an outer edge of the bacteriostatic ring as the boundary. Six parallel experiments are performed for each concentration, and the mean and standard deviation are calculated. Ethyl acetate is used as blank control, and streptomycin sulfate and ampicillin are used as positive controls.

Staphylococcus aureus = experiment: as above; assay type: cell-based
Description: as §1

[1] = positive control 50 ppm, read-out: Inhibitory rate
[2] = positive control 500 ppm, read-out: Inhibitory rate

Compound	Bacteriostatic ring diameter (Escherichia coli; positive control 50 ppm)	inhibition at 50 ppm (Escherichia coli; [1])	Bacteriostatic ring diameter (Staphylococcus aureus; positive control 50 ppm)	inhibition at 50 ppm (Staphylococcus aureus; [1])	Bacteriostatic ring diameter (Escherichia coli; positive control 500 ppm)	inhibition at 500 ppm (Escherichia coli; [2])	Bacteriostatic ring diameter (Staphylococcus aureus; positive control 500 ppm)	inhibition at 500 ppm (Staphylococcus aureus; [2])
CC1(C)S[C@@H]2[C@H](NC(=O)[C@H](N)c3ccccc3)C(=O)N2[C@H]1C(=O)O [Ampicillin]	17.12 ± 0.63B mm	54.8 ± 1.66%	16.58 ± 1.17C mm	53.2 ± 3.03%	–	–	–	–
[H]/N=C(/N)N[C@H]1[C@H](O)[C@@H](O)[C@H](O[C@@H]2O[C@@H](C)[C@](O)(C=O)[C@H]2O[C@@H]2O[C@@H](CO)[C@H](O)[C@@H](O)[C@@H]2NC)[C@@H](N/C(N)=N\[H])[C@@H]1O [Streptomycin sulfate]	–	–	–	–	15.98 ± 0.43C mm	51.6 ± 1.3%	18.10 ± 0.48B mm	57.3 ± 1.13%
